Legend:
[1] = pH of the mixture or of the acidified cysteine solution; conditions: 0.05 g of cysteine in 1 mL of 0.0001 M HCl
[2] = Precipitation time upon mixing the cysteine solution and the ZLC solution; format: physicochemical

Row | pH of solution 1 [1] | precipitation upon mixing ([2]; 0.05 g amino acid in 1 mL 0.0001M HCl, 4.95 g ZLC stock solution with no glycerol) | effect on precipitation time of ZLC ([2]; sulfur-containing amino acids) | Structure (SMILES)
1 | 5.13 | – | – | N[C@@H](CS)C(=O)O [cysteine]
2 | – | No precipitation occurred | no effect | CSCC[C@H](N)C(=O)O [methionine]

Reference: patent US9675823B2 (Colgate-Palmolive Company, priority 2012, dated 2017)
